Assay results published in ChEMBL document CHEMBL3886562, “Substituted pyridone derivatives as PDE10 inhibitors” (2016).

Molecular target: cAMP and cAMP-inhibited cGMP 3',5'-cyclic phosphodiesterase 10A (Homo sapiens, UniProt Q9Y233)
Assay: PDE10 Fluorescence Polarization (FP) Assay: The fluorescence polarization assay for cyclic nucleotide phosphodiesterases was performed using an IMAP FP kit supplied by Molecular Devices, Sunnyvale, Calif. (product # R8139). IMAPU technology has been applied previously to phosphodiesterase assays (Huang, W., et al., J. Biomol Screen, 2002, 7: 215). Assays were performed at room temperature in 384-well microtiter plates with an incubation volume of 20.2 uL. Solutions of test compounds were prepared in DMSO and serially diluted with DMSO to yield 8 uL of each of 10 solutions differing by 3-fold in concentration, at 32 serial dilutions per plate.

Sequence of cAMP and cAMP-inhibited cGMP 3',5'-cyclic phosphodiesterase 10A (Q9Y233 whole entry): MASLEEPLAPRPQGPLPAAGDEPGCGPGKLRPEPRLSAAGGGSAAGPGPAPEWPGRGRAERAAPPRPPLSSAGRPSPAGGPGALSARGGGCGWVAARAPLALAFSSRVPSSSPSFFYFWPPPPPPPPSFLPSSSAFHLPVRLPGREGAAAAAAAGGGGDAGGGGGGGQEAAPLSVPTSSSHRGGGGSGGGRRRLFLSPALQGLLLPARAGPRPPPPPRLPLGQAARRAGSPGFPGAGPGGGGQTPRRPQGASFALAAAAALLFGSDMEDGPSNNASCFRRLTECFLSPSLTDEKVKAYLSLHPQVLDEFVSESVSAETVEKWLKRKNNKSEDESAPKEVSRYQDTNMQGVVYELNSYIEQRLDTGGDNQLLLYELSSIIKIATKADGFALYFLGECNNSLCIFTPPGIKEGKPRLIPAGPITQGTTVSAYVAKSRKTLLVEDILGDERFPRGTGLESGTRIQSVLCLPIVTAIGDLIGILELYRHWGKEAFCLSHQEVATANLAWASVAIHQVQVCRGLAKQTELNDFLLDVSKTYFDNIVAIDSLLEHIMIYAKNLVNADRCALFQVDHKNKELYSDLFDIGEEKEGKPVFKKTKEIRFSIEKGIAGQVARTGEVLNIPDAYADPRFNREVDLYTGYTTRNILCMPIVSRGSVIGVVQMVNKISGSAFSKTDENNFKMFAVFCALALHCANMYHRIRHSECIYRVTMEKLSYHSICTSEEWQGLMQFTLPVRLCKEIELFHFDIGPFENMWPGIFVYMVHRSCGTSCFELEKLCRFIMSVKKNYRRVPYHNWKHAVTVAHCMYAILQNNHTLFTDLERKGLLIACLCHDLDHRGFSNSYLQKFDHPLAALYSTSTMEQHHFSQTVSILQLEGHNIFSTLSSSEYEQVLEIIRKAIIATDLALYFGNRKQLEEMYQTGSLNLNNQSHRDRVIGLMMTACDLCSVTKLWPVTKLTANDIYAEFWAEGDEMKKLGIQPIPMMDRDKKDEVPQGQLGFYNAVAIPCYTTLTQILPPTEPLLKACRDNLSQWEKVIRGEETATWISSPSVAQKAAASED

Compound	Ki [nM]
Cc1ncc(-c2cc(F)c(=O)n(C)c2)c(OC[C@H]2C[C@@H]2c2ccc3ccccc3n2)n1	0.041
Cc1ccc([C@H]2C[C@@H]2COc2nc(C)ncc2-c2ccc(=O)n(CC#N)c2)nc1	3.48
